Biological target: MAPK14 (human) (UniProt Q16539)
Experiment: Inhibition of MAPK14 Kinase Activity

MAPK14 (human), sequence (Q16539 whole entry, looked up): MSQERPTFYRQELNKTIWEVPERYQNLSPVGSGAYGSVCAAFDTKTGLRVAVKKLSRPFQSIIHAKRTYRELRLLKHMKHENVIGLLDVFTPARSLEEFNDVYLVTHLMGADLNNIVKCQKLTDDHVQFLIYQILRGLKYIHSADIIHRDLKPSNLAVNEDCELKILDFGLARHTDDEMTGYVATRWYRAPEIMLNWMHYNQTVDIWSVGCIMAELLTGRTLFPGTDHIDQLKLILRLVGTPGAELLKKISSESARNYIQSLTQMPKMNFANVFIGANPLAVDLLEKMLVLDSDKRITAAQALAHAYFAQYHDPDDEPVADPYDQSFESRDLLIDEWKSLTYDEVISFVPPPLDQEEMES

| SMILES | IC50 [µM] |
| --- | --- |
| C[C@@H](n1c(N)nc2ccc(-c3[nH]c(-c4c(F)cccc4Cl)nc3-c3ccccc3)cc21)C(C)(C)C | ≤ 5 |
| CC(C)(C)Cn1c(N)nc2ccc(-c3[nH]c(-c4c(F)cccc4Cl)nc3-c3ccccc3)cc21 | ≤ 5 |
| CCOCn1nc(-c2ccccc2)c(-c2ccc3nc(N)n(CC(C)C)c3c2)n1 | ≤ 5 |
| Cc1nc2ccc(-c3cn[nH]c3-c3ccc(F)cc3)cc2n1CC(C)C | ≤ 5 |
| CC(C)Cn1c(N)nc2ccc(-c3[nH]c(-c4c(F)cccc4Cl)nc3-c3ccccc3)cc21 | ≤ 5 |
| Nc1nc2ccc(-c3[nH]c(-c4c(F)cccc4F)nc3-c3ccccc3)cc2n1Cc1cccc(F)c1 | ≤ 5 |
| CC(C)Cn1c(N)nc2ccc(-c3cn(C(C)(C)C)nc3-c3ccc(F)cc3)cc21 | ≤ 5 |
| CC(C)(C)Cn1c(N)nc2ccc(-c3[nH]c(-c4c(F)cccc4C(F)(F)F)nc3-c3ccccc3)cc21 | ≤ 5 |
| CC(C)(C)Cn1cnc2ccc(-c3[nH]c(-c4c(F)cccc4F)nc3-c3ccccc3)cc21 | ≤ 5 |
| CC(C)Cn1c(N)nc2ccc(-c3[nH]c(-c4ccccc4C(F)(F)F)nc3-c3ccccc3)cc21 | ≤ 5 |
| CC(C)Cn1c(N)nc2ccc(-c3c(-c4ccccc4)nc(C4CCCCC4)n3C)cc21 | ≤ 5 |
| CCCn1cnc2ccc(-c3[nH]c(-c4c(F)cccc4F)nc3-c3ccccc3)cc21 | ≤ 5 |
| CC(C)Cn1c(N)nc2ccc(-c3[nH]c(C(C)(C)C)nc3-c3ccccc3)cc21 | ≤ 5 |
| CC(n1c(N)nc2ccc(-c3[nH]c(-c4c(F)cccc4F)nc3-c3ccccc3)cc21)C(C)(C)C (stereo not drawn) | ≤ 5 |
| CC(C)Cn1c(N)nc2ccc(-c3c(-c4ccccc4)ncn3C)cc21 | ≤ 5 |
| Cc1nc(-c2ccccc2)c(-c2ccc3nc(N)n(CC(C)C)c3c2)[nH]1 | ≤ 5 |
| CC(C)(C)Cn1c(N)nc2ccc(-c3nc(-c4c(Cl)cccc4Cl)[nH]c3-c3ccc(F)cc3F)cc21 | ≤ 5 |
| CC(C)Cn1c(N)nc2ccc(-c3[nH]c(C(C)(C)C)nc3-c3ccc(F)cc3)cc21 | ≤ 5 |
| CC(C)Cn1c(N)nc2ccc(-c3cn(C(C)C)nc3-c3ccc(F)cc3)cc21 | ≤ 5 |
| C[C@H](n1c(N)nc2ccc(-c3[nH]c(-c4c(F)cccc4Cl)nc3-c3ccccc3)cc21)C(C)(C)C | ≤ 5 |
| C[C@@H](n1c(N)nc2ccc(-c3[nH]c(-c4c(Cl)cccc4Cl)nc3-c3ccccc3)cc21)C(C)(C)C | ≤ 5 |
| CC(C)Cn1cnc2ccc(-c3[nH]c(-c4c(F)cccc4F)nc3-c3ccccc3)cc21 | ≤ 5 |
| CC(C)Cn1c(N)nc2ccc(-c3c(-c4ccc(F)cc4)ncn3C)cc21 | ≤ 5 |
| Cn1c(N)nc2ccc(-c3[nH]c(-c4c(F)cccc4F)nc3-c3ccccc3)cc21 | ≤ 5 |

| SMILES | IC50 [µM] |
| --- | --- |
| CC(C)(C)Cn1c(N)nc2ccc(-c3nc(-c4c(Cl)cccc4Cl)[nH]c3-c3ccccc3)cc21 | ≤ 5 |
| CC(C)Cn1c(N)nc2ccc(-c3[nH]c(C4CC4)nc3-c3ccc(F)cc3F)cc21 | ≤ 5 |
| Fc1cccc(F)c1-c1nc(-c2ccccc2)c(-c2ccc3nc[nH]c3c2)[nH]1 | ≤ 5 |
| CC(C)Cn1c(N)nc2ccc(-c3nc(-c4c(Cl)cccc4Cl)[nH]c3-c3ccc(F)cc3)cc21 | ≤ 5 |
| Cn1cnc2ccc(-c3[nH]c(-c4c(F)cccc4F)nc3-c3ccccc3)cc21 | ≤ 5 |
| Nc1nc2ccc(-c3nc(-c4c(F)cccc4Cl)[nH]c3-c3ccccc3)cc2n1CC1CC1 | ≤ 5 |
| CC(C)Cn1c(N)nc2ccc(-c3oc(C(C)(C)C)nc3-c3ccc(F)cc3)cc21 | ≤ 5 |
| CC(C)Cn1c(N)nc2ccc(-c3c(-c4ccccc4)nc(C4CC4)n3C)cc21 | ≤ 5 |
| Cc1nc(-c2ccc(F)cc2F)c(-c2ccc3nc(N)n(CC(C)C)c3c2)[nH]1 | ≤ 5 |
| C[C@@H](n1c(N)nc2ccc(-c3[nH]c(-c4c(F)cccc4F)nc3-c3ccccc3)cc21)C(C)(C)C | ≤ 5 |
| Cc1nc(-c2ccc(F)cc2F)c(-c2ccc3nc(N)n(C(C)C(C)C)c3c2)[nH]1 (stereo not drawn) | ≤ 5 |
| CC(C)Cn1c(N)nc2ccc(-c3[nH]c(-c4ccc(Cl)cc4)nc3-c3ccccc3)cc21 | ≤ 5 |
| CC(C)Cn1c(N)nc2ccc(-c3cn(C(C)(C)C)nc3-c3ccccc3)cc21 | ≤ 5 |
| CCCCn1cnc2ccc(-c3[nH]c(-c4c(F)cccc4F)nc3-c3ccccc3)cc21 | ≤ 5 |
| Cc1nc(-c2ccc(F)cc2F)c(-c2ccc3ncn(CC(C)C)c3c2)[nH]1 | ≤ 5 |
| Cc1nc2ccc(-c3nc(-c4c(F)cccc4F)[nH]c3-c3ccccc3)cc2n1CC(C)C | ≤ 5 |
| CC(C)Cn1c(N)nc2ccc(-c3nc(-c4c(Cl)cccc4Cl)[nH]c3-c3ccccc3)cc21 | ≤ 5 |
| Nc1nc2ccc(-c3nc(-c4c(F)cccc4F)[nH]c3-c3ccc(F)cc3F)cc2n1CC1CC1 | ≤ 5 |
| CC(C)(C)Cn1c(N)nc2ccc(-c3[nH]c(C(C)(C)C)nc3-c3ccc(F)cc3F)cc21 | ≤ 5 |
| C[C@@H](n1c(N)nc2ccc(-c3[nH]c(C(C)(C)C)nc3-c3ccccc3)cc21)C(C)(C)C | ≤ 5 |
| CC(C)Cn1c(N)nc2ccc(-c3[nH]c(-c4c(Cl)cccc4Cl)nc3-c3ccc(F)cc3F)cc21 | ≤ 5 |
| CCn1cnc2ccc(-c3[nH]c(-c4c(F)cccc4F)nc3-c3ccccc3)cc21 | ≤ 5 |
| Nc1nc2ccc(-c3nc(-c4ccc(F)cc4F)[nH]c3-c3c(F)cccc3C(F)(F)F)cc2n1CC1CC1 | ≤ 5 |
| CC(C)Cn1c(N)nc2ccc(-c3c(-c4ccc(F)cc4)nc4n3CCC4)cc21 | ≤ 5 |

| SMILES | IC50 [µM] |
| --- | --- |
| CC(C)Cn1c(N)nc2ccc(-c3c(-c4ccccc4)ncn3C3CCCCC3)cc21 | ≤ 5 |
| CC(C)Cn1cnc2ccc(-c3n[nH]nc3-c3ccccc3)cc21 | ≤ 5 |
| CC(C)Cn1c(N)nc2ccc(-c3[nH]c(-c4c(F)cccc4F)nc3-c3ccccc3)cc21 | ≤ 5 |
| CC(C)Cn1c(N)nc2ccc(-c3c(-c4ccccc4)nc4ccccn34)cc21 | ≤ 5 |
| Nc1nc2ccc(-c3[nH]c(-c4c(F)cccc4F)nc3-c3ccccc3)cc2n1Cc1ccccc1 | ≤ 5 |
| CC(C)Cn1c(N)nc2ccc(-c3[nH]c(C4CC4)nc3-c3ccc(F)cc3)cc21 | ≤ 5 |
| Nc1nc2ccc(-c3nc(-c4c(Cl)cccc4Cl)[nH]c3-c3ccc(F)cc3F)cc2n1CC1CC1 | ≤ 5 |
| CCCCn1c(N)nc2ccc(-c3[nH]c(-c4c(F)cccc4F)nc3-c3ccccc3)cc21 | ≤ 5 |
| CC(C)Cn1c(N)nc2ccc(-c3c[nH]nc3-c3ccc(F)cc3F)cc21 | ≤ 5 |
| CC(C)Cn1c(N)nc2ccc(-c3n[nH]nc3-c3ccccc3)cc21 | ≤ 5 |
| CC(C)C(C)n1c(N)nc2ccc(-c3[nH]c(-c4c(F)cccc4F)nc3-c3ccccc3)cc21 (stereo not drawn) | ≤ 5 |
| CC(C)Cn1c(N)nc2ccc(-n3ccnc3-c3ccccc3)cc21 | ≤ 5 |
| CC(C)Cn1c(N)nc2ccc(-c3oc(C(C)(C)C)nc3-c3ccc(F)cc3F)cc21 | ≤ 5 |
| CC(C)Cn1c(N)nc2ccc(-c3[nH]c(-c4c(F)cccc4Cl)nc3-c3ccc(F)cc3F)cc21 | ≤ 5 |
| Cc1nc2ccc(-c3c(-c4ccccc4)ncn3C3CCCCC3)cc2n1CC(C)C | ≤ 5 |
| CC(C)(C)Cn1c(N)nc2ccc(-c3[nH]c(-c4c(F)cccc4Cl)nc3-c3ccc(F)cc3F)cc21 | ≤ 5 |
| CC(C)(C)Cn1c(N)nc2ccc(-c3[nH]c(C4CC4)nc3-c3ccc(F)cc3F)cc21 | ≤ 5 |
| CC(C)Cn1c(N)nc2ccc(-c3cn(C)nc3-c3ccc(F)cc3)cc21 | ≤ 5 |
| CC(C)Cn1c(N)nc2ccc(-c3n[nH]nc3-c3ccc(F)cc3)cc21 | ≤ 5 |
| CC(C)Cn1c(N)nc2ccc(-c3nc(-c4c(C(F)(F)F)cccc4C(F)(F)F)[nH]c3-c3ccccc3)cc21 | ≤ 5 |
| CC(C)Cn1c(N)nc2ccc(-c3n[nH]nc3-c3ccc(F)cc3F)cc21 | ≤ 5 |
| Cc1ccsc1-c1nc(-c2ccc3nc(N)n(CC(C)C)c3c2)c(-c2ccccc2)[nH]1 | ≤ 5 |
| CC(C)n1c(N)nc2ccc(-c3[nH]c(-c4c(F)cccc4F)nc3-c3ccccc3)cc21 | ≤ 5 |
| CCCn1c(N)nc2ccc(-c3[nH]c(-c4c(F)cccc4F)nc3-c3ccccc3)cc21 | ≤ 5 |

| SMILES | IC50 [µM] |
| --- | --- |
| CCOCN1=NC(=C(N1)c2ccc3nc(N)n(CC(C)C)c3c2)c4ccccc4 | ≤ 5 |
| CC(C)n1cnc2ccc(-c3n[nH]nc3-c3ccccc3)cc21 | ≤ 5 |
| C[C@H](n1c(N)nc2ccc(-c3[nH]c(-c4c(F)cccc4F)nc3-c3ccccc3)cc21)C(C)(C)C | ≤ 5 |
| Nc1nc2ccc(-c3nc(-c4c(F)cccc4Cl)[nH]c3-c3ccc(F)cc3F)cc2n1CC1CC1 | ≤ 5 |
| C[C@H](n1c(N)nc2ccc(-c3[nH]c(C(C)(C)C)nc3-c3ccccc3)cc21)C(C)(C)C | ≤ 5 |
| CC(C)Cn1c(N)nc2ccc(-c3[nH]c(C4CC4)nc3-c3ccccc3)cc21 | ≤ 5 |
| CC(C)(C)Cn1c(N)nc2ccc(-c3[nH]c(C4CC4)nc3-c3ccccc3)cc21 | ≤ 5 |
| CC(C)Cn1c(N)nc2ccc(-c3[nH]c(-c4ccccc4C(F)(F)F)nc3-c3ccc(F)cc3)cc21 | ≤ 5 |
| CC(C)Cn1c(N)nc2ccc(-c3cn(C)nc3-c3ccccc3)cc21 | ≤ 5 |
| CC(C)Cn1c(N)nc2ccc(-c3[nH]c(C(C)C)nc3-c3ccccc3)cc21 | ≤ 5 |
| Clc1ccc(-c2nc(-c3ccccc3)c(-c3ccc4ncn(CC5CC5)c4c3)[nH]2)cc1 | ≤ 5 |
| CC(C)Cn1c(N)nc2ccc(-c3[nH]c(C(C)(C)C)nc3-c3ccc(F)cc3F)cc21 | ≤ 5 |
| CC(C)(C)c1nc(-c2ccc3nc(N)n(CC4CC4)c3c2)c(-c2ccc(F)cc2F)[nH]1 | ≤ 5 |
| CC(C)Cn1c(N)nc2ccc(-c3[nH]c(-c4c(F)cc(OCCN5CCCC5)cc4F)nc3-c3ccccc3)cc21 | ≤ 5 |
| CC(C)Cn1c(N)nc2ccc(-c3[nH]c(-c4c(F)cccc4C(F)(F)F)nc3-c3ccccc3)cc21 | ≤ 5 |
| CC(C)Cn1cnc2ccc(-c3c(-c4ccccc4)ncn3C3CCCCC3)cc21 | ≤ 5 |
| CC(C)Cn1c(N)nc2ccc(-c3[nH]c(-c4c(F)cccc4C(F)(F)F)nc3-c3ccc(F)cc3F)cc21 | ≤ 5 |
| CC(C)n1cnc2ccc(-c3[nH]c(-c4c(F)cccc4F)nc3-c3ccccc3)cc21 | ≤ 5 |
| Nc1nc2ccc(-c3[nH]c(-c4c(F)cccc4F)nc3-c3ccccc3)cc2n1-c1ccccc1 | ≤ 5 |
| CC(C)Cn1c(N)nc2ccc(-c3nc(-c4c(F)cccc4Cl)[nH]c3-c3ccc(F)cc3)cc21 | ≤ 5 |
| CC(C)n1c(N)nc2ccc(-c3[nH]c(-c4ccccc4)nc3-c3ccccc3)cc21 | ≤ 5 |

Reference: the Kinase Knowledgebase extract (Sharma et al. 2016)
